The source of these data is patent EP0154476A2, “Steroid compound” (STERWIN AG., priority 1984, dated 1985).

Experiment [1] can be described thus: cytochemical bioassay in unfixed tissue sections of dioestrous rat ovary (formazan dye absorbance). As to conditions: versus trilostane, weight for weight basis, standard curves 0.15 to 2.5 µM (nM), 95% confidence 1.4-2.1. Type of experiment: biochemical. On the procedure:
In a first study, a cytochemical bioassay was employed to determine the relative potency of the 17- keto trilostane metabolite versus trilostane, in three experiments. From the results obtained, standard curves covering the range from 0.15 to 2.5nM were prepared for the metabolite and the parent compound. Potency estimates were calculated by computer analysis of the relative slopes and errors around each dose point.
The cytochemical bioassay is based upon the reaction, within serial unfixed tissue sections of the dioestrous rat ovary, between the enzyme, […] -A^5-3-oxosteroid isomerase (38 HSD) contained therein, and added substrate, cofactors and a colourless tetrazolium salt. The reaction leads to the deposition of an intensely coloured blue insoluble formazan dye in the sections, and the amount of dye produced within a section over a given period (absorbance) is measured by means of a scanning integrating densitometer. If an inhibitor of 3a HSD, such as trilostane or 17-keto trilostane metabolite is added to the system, the amount of blue dye formed will be reduced.
The bioassay curves obtained are as shown in Figure 1 of the accompanying drawings, results being expressed as the mean +SD(n=4).

The test system of the next experiment is plasma cortisol. Kind of experiment: plasma cortisol by radioimmunoassay after oral trilostane in volunteers. Type of experiment: in vivo, healthy male volunteers. As to conditions: trilostane 2 x 60 mg capsules orally, fasted, plasma up to 8 hours; during sustained plasma peaks of trilostane and 17-keto metabolite.

Consider `C[C@]12CC[C@H]3[C@@H](CC[C@@]45O[C@@H]4C(=O)[C@H](C#N)C[C@]35C)[C@@H]1CCC2=O` [17-keto metabolite, 2α-cyano-4α,5α-epoxyandrostan-3,17-dione], for which the figures for the “relative in vitro potency compared with the parent compound” value in experiment [1] and in experiment [1] (listed as metabolite) were “about 1.7 times” and 1.71 times, respectively.
`C[C@]12CC[C@H]3[C@@H](CC[C@@]45O[C@@H]4C(O)=C(C#N)C[C@]35C)[C@@H]1CC[C@@H]2O` [trilostane, 2a-cyano-4a,5a-epoxyandrostan-17a-ol-3-one]: the cortisol secretion result in the experiment on plasma cortisol is recorded as “suppressed”.
